{
  "source": "patent US20110262502A1",
  "about": "“PULMONARY DELIVERY OF 17-HYDROXYPROGESTERONE CAPROATE (17-HPC)” (Prairie Pharmaceuticals LLC, priority 2010, published 2011)",
  "key": {"[1]": {"experiment": "Dynamic vapor sorption (DVS) of 17-HPC powder", "format": "physicochemical", "settings": "FIG. 18; increasing percent relative humidity", "method": "Dynamic vapor sorption (DVS) is a gravimetric technique that measures how quickly and how much of a solvent is absorbed by a sample, such as a dry powder absorbing water. DVS accomplishes this by varying the vapor concentration surrounding the sample and measuring the change in mass which this produces.\nAnalysis of 17-HPC dry powder (obtained after particle size reduction and spray drying or SD) was performed. FIG. 18 depicts exemplary results from a dynamic vapor sorption (DVS) analysis of a dry powder obtained after a spray-drying (SD) process. One particular batch (PGC2011-020PD) was selected to be analyzed by DVS. […] There was no substantive change in adsorption or desorption even with conditions of increasing percent relative humidity. Referring to FIG. 19, exemplary results are shown of XRPD analysis of a 17-HPC dry powder obtained after particle size reduction and a spray-drying (SD) process. One particular batch (PGC2011-020PD) was selected to be analyzed by XRPD."}, "[2]": {"experiment": "API particle size distribution (Dv(10), Dv(50), Dv(90), Span)", "format": "physicochemical", "source_text": "In determining and characterizing particle size, e.g., particle size of an API (active pharmaceutical ingredient), the particle size parameters Dv(10), Dv(50) and Dv(90) may be used. Particle size measurements are preferably expressed in terms of Dv(10), Dv(50), and Dv(90), wherein Dv(10) refers to the particle size below which 10% of the volume of material exists; Dv(50) refers to the particle size below which 50% of the volume of material exists; and Dv(90) refers to the particle size below which 90% of the volume of material exists.\nReferring to Table 5, experiments were performed with a suspension comprising the active pharmaceutical ingredient (the API), i.e., 17-HPC was the API in these experiments, wherein 17-HPC was present at approximately five percent (5%) w/w in water; and the suspension also comprised the surfactant Tween 80 at approximately 15% in these experiments (processing conditions conducted at Pressure=90 bar). […] Particle size measurements are expressed in terms of Dv(10), Dv(50), and Dv(90), wherein Dv(10) refers to the particle size below which 10% of the volume of material exists; Dv(50) refers to the particle size below which 50% of the volume of material exists; and Dv(90) refers to the particle size below which 90% of the volume of material exists). […]\nExemplary particle size reduction experiments, and characterization of API (i.e., 17-HPC) particle size distribution, using a suspension prepared without a surfactant. Referring to Table 7, particle size reduction of 17-HPC was observed without using any surfactant. Experiments were performed with a suspension comprising the active pharmaceutical ingredient (the API), i.e., 17-HPC in these experiments, in water and without a surfactant. FIG. 16 depicts an exemplary API particle size distribution profile (17-HPC is the active ingredient) after a spray-drying (SD) process. Referring again to FIG. 16, and also to Table 7, an exemplary 17-HPC particle size distribution profile was obtained after approximately 10 to 55 cycles of milling. API particle size was measured after spray drying (SD). Particle size measurements are expressed in terms of Dv(10), Dv(50), and Dv(90), wherein Dv(10) refers to the particle size below which 10% of the volume of material exists; Dv(50) refers to the particle size below which 50% of the volume of material exists; and Dv(90) refers to the particle size below which 90% of the volume of material exists)."}, "[3]": {"test_system": "PHA-induced IL-2 production in PBMCs", "experiment": "PHA-induced IL-2 production in PBMCs from healthy male smokers (no IL-2/IL-4 added), ELISA", "format": "cell-based, human", "settings": "for levels of IL-2 in PBMCs: FIG. 1, PHA; for % inhibition of PHA stimulation of IL-2: Table 2", "method": "PBMCs were isolated from human blood buffy coats provided by a regional blood center. Random buffy coat cells from male donors were a by-product of blood processed for clinical use and no details (i.e., personal identification and background) were provided except for tobacco use. […] PBMCs were separated using a porous high density polyethylene barrier (HISTOPAQUE from GEHealthcare Bio-Sciences AB (US). After centrifugation of blood samples in each tube (35 minutes at 800×g at room temperature, or RT), PBMCs were collected and washed twice with Hank's buffered saline solution (HBSS). PBMCs were resuspended in RPMI-1640 medium containing 10% fetal calf serum (FCS) and 15 mM glutamine and cells were counted and plated.\n(§1) PBMCs (2×10^6) were incubated with or without IL-2 (13 ng/ml) and IL-4 (6.5 ng/ml) for 48 hours in RPMI-1640 medium containing 10% FCS and 2 mM glutamine. […] IL-2 and IL-4 stimulated PBMCs were also plated at a concentration of 10^6 cells/ml in 96-well plates ready for PHA (15 μg/mL, 24 hours) stimulation of cytokine release and detection by ELISA.\nSerial dilutions of standards and PBMCs' supernatants were measured by enzyme linked immunosorbent assay to determine IL-2 at baseline and its levels after 17HPC, P4 and MAP treatments. Optical density was measured at 450 nm and corrected with 550 nm. The concentration of TL-2 was calculated using the standard curve and taking into account the supernatant dilution used. Detection limit for IL-2 is 4.0 pg/ml.\nData are expressed as mean±SD. The efficacies of the drug treatments were analyzed by paired t-test. One-way analysis of variance was used to compare three or more matched groups and 95% CI was performed to present groups differences. All graphs indicate mean values of results or % inhibition of PHA-stimulated IL-2. IC50 values were calculated by using a sigmoidal model (BioDataFit). A p value <0.05 was considered statistically significant.\n(§2) IL-2 levels were quantified using ELISA.\nIL-2 levels were quantified using ELISA. IC50 values were calculated by using a sigmoidal model (BioDataFit).\nas §2, §2, §2"}, "[4]": {"test_system": "PHA-induced IL-2 release in IL-2 and IL-4 treated (steroid resistant) PBMCs", "experiment": "IL-2/IL-4 induced steroid resistance model in PBMCs: dexamethasone inhibition of PHA-induced IL-2 release", "format": "cell-based, human", "method": "J Immunol 2009; 183; 164-171). […] Following PBMCs stimulation with mitogen phytohaemagglutinin (PHA), there is a strong correlation between cytokine secretion levels and steroid resistance as well as steroid sensitivity in vitro. Addition of IL-2, IL-4 and TNF-reduce steroid sensitivity.\nas §1\nIL-2/4 induced steroid resistance in PBMCs, a well-recognized study model, was used to evaluate potential modifiers of steroid resistance and sensitivity. PBMCs from healthy smokers were collected. Corticosteroid insensitivity or resistance was induced by adding IL-2 and IL-4 in peripheral blood mononuclear cells (PBMCs) from healthy male smokers (n=˜11). […] IL-2 levels were quantified using ELISA.\nJ Immunol 2009; 183; 164-171).\nas §2"}, "[5]": {"settings": "Table 7, powders after spray drying, bulk material for comparison"}, "[6]": {"settings": "Example 8, Dexamethasone only 10E−6M"}, "[7]": {"settings": "Example 8, Dexamethasone only 10E−8M"}, "[8]": {"settings": "Example 8, Dexamethasone only 10E−11M"}, "[9]": {"settings": "Homo sapiens, PBMC, read-out: % inhibition on PHA-induced IL-2 production"}},
  "note": "pIC50: −log10 of the molar value. Like-named read-outs stand apart in the source and are kept apart here.",
  "data": [
    {"smiles": "CCCCCC(=O)O[C@]1(C(C)=O)CC[C@H]2[C@@H]3CCC4=CC(=O)CC[C@]4(C)[C@H]3CC[C@@]21C", "note": "[Bulk material]", "values": [
      {"measurement": "water uptake in DVS (percent change in weight vs RH %)", "setting": "[1]", "result": "neither the obtained powders nor the bulk material gained any measurable quantity of water"},
      {"measurement": "Particle Size Dv(10)", "setting": "[2]; Table 5, bulk material", "result": 6.345, "unit": "μm"},
      {"measurement": "Particle Size Dv(50)", "setting": "[2]; Table 5, bulk material", "result": 56.762, "unit": "μm"},
      {"measurement": "Particle Size Dv(90)", "setting": "[2]; Table 5, bulk material", "result": 307.607, "unit": "μm"},
      {"measurement": "Particle Size Span", "setting": "[2]; Table 5, bulk material", "result": 5.307},
      {"measurement": "API particle size after SD (powders) Dv(10)", "setting": "[2]; [5]", "result": 2.398, "unit": "μm"},
      {"measurement": "API particle size after SD (powders) Dv(50)", "setting": "[2]; [5]", "result": 23.610, "unit": "μm"},
      {"measurement": "API particle size after SD (powders) Dv(90)", "setting": "[2]; [5]", "result": 98.799, "unit": "μm"},
      {"measurement": "API particle size after SD (powders) Span", "setting": "[2]; [5]", "result": 4.083}
    ]},
    {"smiles": "C[C@@H]1C[C@H]2[C@@H]3CCC4=CC(=O)C=C[C@]4(C)[C@@]3(F)[C@@H](O)C[C@]2(C)[C@@]1(O)C(=O)CO", "note": "[Dexamethasone]", "values": [
      {"measurement": "% inhibition of PHA-induced IL-2 production", "setting": "[3]; [6]", "result": "(86%)"},
      {"measurement": "mean IL-2", "setting": "[3]; [6]", "result": 109.6, "unit": "pg/mL"},
      {"measurement": "% inhibition of PHA-induced IL-2 production", "setting": "[3]; [7]", "result": 67, "unit": "%"},
      {"measurement": "mean IL-2", "setting": "[3]; [7]", "result": 251.6, "unit": "pg/mL"},
      {"measurement": "% inhibition of PHA-induced IL-2 production", "setting": "[3]; [8]", "result": "(72%)"},
      {"measurement": "mean IL-2", "setting": "[3]; [8]", "result": 216.1, "unit": "pg/mL"},
      {"measurement": "levels of IL-2 in PBMCs", "setting": "[3]; dex 10^−8M, n=17, mean±SD", "result": "293 ± 338", "unit": "pg/mL"},
      {"measurement": "levels of IL-2 in PBMCs", "setting": "[3]; dexamethasone 10^−6M, n=17, mean±SD", "result": "144 ± 157", "unit": "pg/mL"},
      {"measurement": "levels of IL-2 in PBMCs", "setting": "[3]; dexamethasone 10^−10 M, n=14, mean±SD", "result": "287 ± 313", "unit": "pg/mL"},
      {"measurement": "levels of IL-2 in PBMCs", "setting": "[3]; dexamethasone 10^−12 M, n=11, mean±SD", "result": "371 ± 447", "unit": "pg/mL"},
      {"measurement": "inhibition at 1 µM", "setting": "[3]; Homo sapiens, PBMC", "result": 87, "unit": "%"},
      {"measurement": "pIC50", "setting": "[3]; Homo sapiens, PBMC, Dexamethasone+17HPC at lower 17HPC concentrations, read-out: Dexamethasone-IC50", "result": "10.20 to 12.00"},
      {"measurement": "pIC50", "setting": "[3]; Homo sapiens, PBMC, read-out: Dexamethasone IC50, Dexamethasone only, sigmoidal model, N=14", "result": 7.50},
      {"measurement": "pIC50", "setting": "[3]; Homo sapiens, PBMC, read-out: Dexamethasone IC50, with 17HPC 10^−5M add-on", "result": 7.60},
      {"measurement": "pIC50", "setting": "[3]; Homo sapiens, PBMC, read-out: Dexamethasone IC50, with 17HPC 10^−10M add-on", "result": 10.20},
      {"measurement": "inhibition at 0.0001 µM", "setting": "[3]; [9]", "result": 52, "unit": "%"},
      {"measurement": "mean IL-2", "setting": "[3]; Table 1, Dexamethasone only 10^−6M", "result": 160.6, "unit": "pg/mL"},
      {"measurement": "mean IL-2", "setting": "[3]; Table 1, Dexamethasone only 10^−8M", "result": 398.1, "unit": "pg/mL"},
      {"measurement": "mean IL-2", "setting": "[3]; Table 1, Dexamethasone only 10^−10M", "result": 312.7, "unit": "pg/mL"},
      {"measurement": "mean IL-2", "setting": "[3]; Table 1, Dexamethasone only 10^−12M", "result": 371.7, "unit": "pg/mL"},
      {"measurement": "% inhibition of PHA stimulation of IL-2", "setting": "[3]; Dexamethasone only 10^−6 M (Imax)", "result": 78, "unit": "%"},
      {"measurement": "% inhibition of PHA stimulation of IL-2", "setting": "[3]; Dexamethasone only 10^−8 M", "result": 46, "unit": "%"},
      {"measurement": "% inhibition of PHA stimulation of IL-2", "setting": "[3]; Dexamethasone only 10^−10 M", "result": 57, "unit": "%"},
      {"measurement": "% inhibition of PHA stimulation of IL-2", "setting": "[3]; Dexamethasone only 10^−12 M", "result": 49, "unit": "%"},
      {"measurement": "effect in basal IL-2 level", "setting": "[3]; no PHA stimulation, data not shown", "result": "no significant effect"},
      {"measurement": "% inhibition on PHA-induced IL-2 production", "setting": "[4]; FIG. 2, Dexamethasone 10^−10 M, with addition of IL-2 and IL-4", "result": "no inhibition"},
      {"measurement": "PHA-induced IL-2 level", "setting": "[4]; FIG. 5, Dexamethasone 10^−10 M without 17HPC", "result": 2364, "unit": "pg/mL"},
      {"measurement": "inhibition at 1 µM", "setting": "[4]; [9]", "result": 21, "unit": "%"}
    ]}
  ]
}
